# Calls of active or inactive are those of the source. No cut-off for these calls is given here.
# How the values were obtained:
# Staphylococcus aureus [1] = assay: Antibacterial activity against Staphylococcus aureus assessed as bacterial growth inhibition measured after 24 hrs by broth dilution assay; assay type: functional, organism-based; settings: for MIC: time 24 hrs; for IC50: 24 h
# Escherichia coli [2] = assay: Antibacterial activity against Escherichia coli assessed as bacterial growth inhibition measured after 24 hrs by broth dilution assay; assay type: functional, organism-based; settings: for MIC: time 24 hrs; for IC50: 24 h
# [3] = Cytotoxicity against human HEK293 cells assessed as viable cells at 50 uM after 48 hrs by calcein-AM staining based fluorescence analysis; assay type: cell-based; settings: read-out: Activity
# Staphylococcus aureus [4] = assay: Antibacterial activity against Staphylococcus aureus assessed as minimum concentration required to decrease 90% bacteria measured after 24 hrs by broth dilution assay; assay type: functional
# Escherichia coli [5] = assay: Antibacterial activity against Escherichia coli assessed as zone of inhibition at 25 to 100 ug by disc diffusion method; assay type: functional, organism-based; settings: dose 25-100 µg
# Escherichia coli [6] = assay: Antibacterial activity against Escherichia coli assessed as minimum concentration required to decrease 90% bacteria measured after 24 hrs by broth dilution assay; assay type: functional
# Staphylococcus aureus [7] = assay: Antibacterial activity against Staphylococcus aureus assessed as zone of inhibition at 25 to 100 ug by disc diffusion method; assay type: functional, organism-based; settings: dose 25-100 µg
# Cell membrane [8] = assay: Induction of cell membrane permeabilization in Escherichia coli assessed as increase in propidium iodide intake at MIC by propidium iodide staining based assay; settings: TDE = time-dependent effect
# Cell membrane [9] = assay: Induction of cell membrane permeabilization in Staphylococcus aureus assessed as increase in propidium iodide intake at MIC by propidium iodide staining based assay; settings: time 48.0 hrs, TDE = time-dependent effect
MIC (Staphylococcus aureus [1]),MIC (Escherichia coli [2]),Activity (Cell membrane [8]),Activity (Cell membrane [9]),SMILES,IC50 (Staphylococcus aureus [1]),IC50 (Escherichia coli [2]),"viability at 48 h, 50 µM [3]",MBC (Staphylococcus aureus [4]),inhibition (Escherichia coli [5]),MBC (Escherichia coli [6]),inhibition (Staphylococcus aureus [7])
> 200 µM,> 200 µM,,,COc1c(Br)cc(/C=C/C(=O)NCCCNCc2cccc(CNCCCNC(=O)/C=C/c3cc(Br)c(OC)c(Br)c3)c2)cc1Br,,,,,,,
> 200 µM,> 200 µM,,,COc1c(Br)cc(Br)c(/C=C/C(=O)NCCCNCc2cccc(CNCCCNC(=O)/C=C/c3c(Br)cc(Br)c(OC)c3Br)c2)c1Br,,,,,,,
,,,,CC1(C)S[C@@H]2[C@H](NC(=O)[C@H](N)c3ccccc3)C(=O)N2[C@H]1C(=O)O [AMPICILLIN],3.8 µM,33.6 µM,,,,,
50 µM,25 µM,Tde,Tde,COc1cc(/C=C\C(=O)NCCCNCc2cccc(CNCCCNC(=O)/C=C\c3cc(OC)c(Br)cc3Br)c2)c(Br)cc1Br,13.9 µM,37.3 µM,> 95%,50 µM,Active,25 µM,Active

# — ChEMBL document CHEMBL4732248, “Synthesis and antibacterial activities of marine natural product ianthelliformisamines and subereamine synthetic analogues” (Bioorg Med Chem Lett, 2021)
